Laboratory results from patent US20230194511A1, “Compound Fixing Method, Detection Method, Screening Method, Substrate Used in Same, Compound Fixing Agent, and Fixing Kit” (priority 2020, published 2023).

Tests used:
[1] = system: anti-prostaglandin E2 antibody; experiment: Prostaglandin-HSA compound microarray, detection with anti-prostaglandin E2 antibody (Example 5); type: binding; settings: prostaglandin mixed with HSA 0.1 milligram/milliliter, printed on glass slide
Method: The immobilization of prostaglandins, which are bioactive lipids, was verified. In this example, as the prostaglandins, prostaglandins A1, A2, A3, B1, B2, B3, D1, D2, D3, E1, E2, E3, F1a, F2a, F3a, G2, H1, H2, I2, I3, J2, K1, and K2 were used. The prostaglandins were mixed with HSA in the solvents and at the final concentrations shown in the table below to form prostaglandin and HSA complexes. It should be noted that HSA was added to achieve a final concentration of 0.1 milligram/milliliter.
Solutions including each prepared prostaglandin and HSA were spotted and printed on glass slides as microdroplets of approximately 2 to 4 nl by using an ultratrace dispensing system (Micro Diagnostic).
(§1) The compound microarrays printed with the prostaglandins were immersed in ethanol and shaken for 30 seconds at room temperature. Subsequently, the compound microarrays were immersed in ultrapure water and shaken for 30 seconds at 26° C. The shaking by ultrapure water was performed twice. For solution replacement, the compound microarrays were immersed in solution A for protein microarrays only (Fukushima Protein Factory, Fukushima, Japan) and shaken for about five minutes at 26° C.
(§2) The compound microarrays treated as described above were immersed in Blocking One (Nacalai Tesque, Kyoto, Japan) and shaken for one hour at 26° C. Subsequently, the compound microarrays were immersed in solution A for protein microarrays only and shaken for about five minutes at 26° C.
(§3) Using a solution obtained by adding 1/4000 volume of Goat Reference Antibody Mixture I (Fukushima Protein Factory) to the primary antibody diluent for protein microarrays only (Fukushima Protein Factory), an anti-prostaglandin E2 antibody (Ab00484-23.0, Absolute Antibody) was diluted to 1 microgram/milliliter.
(§4) Two milliliters of the solution with the diluted primary antibody were added to a P-DE1 cassette for protein microarrays (Fukushima Protein Factory). […]

[2] = system: anti-amoxicillin antibodies; experiment: Compound microarray, detection of immobilized compound with anti-amoxicillin antibodies; type: binding, mouse; settings: concentrations of HSA from 0.5 mM to 0.0005 mM, glass slide
Method: (§5) Further, compounds of bovine serum albumin (BSA) covalently bonded to these 14 compounds in advance (Imgen BioSciences) were printed on glass slides as control samples for comparison. The compounds mixed with HSA were each dissolved in solution A for protein microarrays only (Fukushima Protein Factory) to a concentration of 0.5 mM. Furthermore, HSA was prepared and mixed with the solutions A including the compounds, bringing the final concentrations to 0.1 micrograms/microliter. It should be noted that the printing of each compound on a glass slide was performed by spotting microdroplets of approximately 2 to 4 nl on the glass slide by using an ultratrace dispensing system (Micro Diagnostic).
as §1, with “the compounds” for “the prostaglandins”, “C. It should be noted that the” for “C. The”
as §2
as §3, with “one of eight mouse monoclonal anti-compound antibodies (Table 2)” for “an anti-prostaglandin E2 antibody (Ab00484-23.0, Absolute Antibody)”
as §4

[3] = system: anti-ampicillin antibodies; experiment: Compound microarray, detection of immobilized compound with anti-ampicillin antibodies; type: binding, mouse; settings: compound 0.5 mM mixed with HSA 0.1 micrograms/microliter, printed on glass slide
Excerpt: as §5, with “Fourteen compounds (amoxicillin, ampicillin, apramycin, bacitracin, cefalexin, ceftazidime, cloxacillin, gentamicin, hygromycin B, neomycin, penicillin G, streptomycin, sulfadimidine, and tetracycline) were each mixed with human serum albumin (HSA) (Sigma-Aldrich) and printed on glass slides. Further,” for “Further,”
(§6) The compound microarrays printed with the compounds were immersed in ethanol and shaken for 30 seconds at room temperature. Subsequently, the compound microarrays were immersed in ultrapure water and shaken for 30 seconds at 26° C. […]
(§7) The compound microarrays were dried, centrifuged at 1500 rpm for one minute, and scanned for fluorescence intensity using a GenePix 4000B (Molecular Devices, Calif., USA). […]

[4] = system: anti-penicillin antibodies; experiment: Compound microarray, detection with anti-penicillin antibodies (Examples 3 and 4, clone not stated); type: binding; settings: concentrations of HSA from 0.5 mM to 0.0005 mM, glass slide
[5] = system: anti-penicillin [P2B9] antibodies; experiment: Compound microarray, detection of immobilized compound with anti-penicillin [P2B9] antibodies; type: binding, mouse; settings: compound mixed with HSA, printed on glass slide
Excerpt: as §5, with “Fourteen compounds (amoxicillin, ampicillin, apramycin, bacitracin, cefalexin, ceftazidime, cloxacillin, gentamicin, hygromycin B, neomycin, penicillin G, streptomycin, sulfadimidine, and tetracycline) were each mixed with human serum albumin (HSA) (Sigma-Aldrich) and printed on glass slides. Further,” for “Further,”
as §6, §7

[6] = system: anti-streptomycin antibodies; experiment: Compound microarray, detection of immobilized compound with anti-streptomycin antibodies; type: binding, mouse; settings: compound mixed with HSA, printed on glass slide
Excerpt: as §5, with “Fourteen compounds (amoxicillin, ampicillin, apramycin, bacitracin, cefalexin, ceftazidime, cloxacillin, gentamicin, hygromycin B, neomycin, penicillin G, streptomycin, sulfadimidine, and tetracycline) were each mixed with human serum albumin (HSA) (Sigma-Aldrich) and printed on glass slides. Further,” for “Further,”
as §6, §7

[7] = system: anti-dihydrosterptomycin [1.BB.891]; experiment: Compound microarray, detection of immobilized compound with anti-dihydrostreptomycin antibody [1.BB.891]; type: binding, mouse; settings: compound mixed with HSA, printed on glass slide
Excerpt: as §5, with “Fourteen compounds (amoxicillin, ampicillin, apramycin, bacitracin, cefalexin, ceftazidime, cloxacillin, gentamicin, hygromycin B, neomycin, penicillin G, streptomycin, sulfadimidine, and tetracycline) were each mixed with human serum albumin (HSA) (Sigma-Aldrich) and printed on glass slides. Further,” for “Further,”
as §6, §7

[8] = system: streptomycin/dihydrostreptomycin [CH-2013]; experiment: Compound microarray, detection of immobilized compound with streptomycin/dihydrostreptomycin antibody [CH-2013]; type: binding, mouse; settings: compound mixed with HSA, printed on glass slide
Excerpt: as §5, with “Fourteen compounds (amoxicillin, ampicillin, apramycin, bacitracin, cefalexin, ceftazidime, cloxacillin, gentamicin, hygromycin B, neomycin, penicillin G, streptomycin, sulfadimidine, and tetracycline) were each mixed with human serum albumin (HSA) (Sigma-Aldrich) and printed on glass slides. Further,” for “Further,”
as §6, §7

[9] = system: anti-gentamycin antibodies; experiment: Compound microarray, detection of immobilized compound with anti-gentamycin antibodies; type: binding, mouse
Method: as §5
as §1, with “the compounds” for “the prostaglandins”, “C. It should be noted that the” for “C. The”
The compound microarrays treated as described above were immersed in Blocking One (Nacalai Tesque, Kyoto, Japan) and shaken for one hour at 26° C. […]

`CCCCC[C@H](O)/C=C/[C@H]1[C@H](O)CC(=O)[C@@H]1C/C=C\CCCC(=O)O` [Prostaglandin E2] was tested, and the “reaction of the anti-prostaglandin E2 antibody (fluorescence intensity)” value (“reaction” for short) [1] was “reacted strongly”.
`CC/C=C\C[C@H](O)/C=C/[C@H]1[C@H](O)CC(=O)[C@@H]1C/C=C\CCCC(=O)O` [Prostaglandin E3] was tested, and the “reaction” value [1] was “reacted strongly”.
In the case of `CCCCC[C@H](O)/C=C/[C@@H]1[C@H]2C/C(=C/CCCC(=O)O)O[C@H]2C[C@H]1O` [Prostaglandin I2], the “reaction” value [1] is reported as “reacted strongly”.
For `CC1(C)S[C@@H]2[C@H](NC(=O)[C@H](N)c3ccc(O)cc3)C(=O)N2[C@H]1C(=O)[O-].[Na+]` [amoxicillin sodium], the “concentration of HSA at which the strongest signal was detected” value [2] was 0.05 mM and the “signal intensity versus HSA concentration” value [2] was “tended to be concentration-dependent”.
`CC1(C)S[C@@H]2[C@H](NC(=O)[C@H](N)c3ccc(O)cc3)C(=O)N2[C@H]1C(=O)O` [amoxicillin] was tested, and the “signal intensity versus HSA concentration” value [2] was “increased in an HSA concentration-dependence”.
For `CC1(C)S[C@@H]2[C@H](NC(=O)[C@H](N)c3ccccc3)C(=O)N2[C@H]1C(=O)O` [ampicillin], the “signal (Red Intensity)” value [3] was “strong signal (strong signals (red intensity of 2000 or greater; the same below))”.
With `CC1(C)S[C@@H]2[C@H](NC(=O)Cc3ccccc3)C(=O)N2[C@H]1C(=O)[O-].[Na+]` [penicillin G sodium] the “signal intensity versus HSA concentration” value [4] was “increased in an HSA concentration-dependence”.
`CC1(C)S[C@@H]2[C@H](NC(=O)Cc3ccccc3)C(=O)N2[C@H]1C(=O)O` [penicillin G] was tested, and the “signal (Red Intensity)” value [5] was “weak signal”.
`[H]/N=C(/N)N[C@H]1[C@H](O)[C@@H](O)[C@H](O[C@@H]2O[C@@H](C)[C@](O)(C=O)[C@H]2O[C@@H]2O[C@@H](CO)[C@H](O)[C@@H](O)[C@@H]2NC)[C@@H](N/C(N)=N\[H])[C@@H]1O` [streptomycin] was tested, and the “signal (Red Intensity)” value [6] was “weak signal”, the “signal (Red Intensity)” value [7] was “weak signal” and the “signal (Red Intensity)” value [8] was “weak signal”.
For gentamycin sulfate, the “signal (red intensity)” value ([9]; compound 0.5 mM mixed with each immobilizing protein or HSA (0.1 micrograms/microliter), strong only with this antibody) was “strong signal (strong signals (red intensity of 2000 or greater; the same below))” and the “signal intensity versus HSA concentration” value ([9]; concentrations of HSA from 0.5 mM to 0.0005 mM, glass slide) was “increased in an HSA concentration-dependence”.
